The values below come from ChEMBL document CHEMBL1137125, “Rhodanine-3-acetic acid derivatives as inhibitors of fungal protein mannosyl transferase 1 (PMT1)” (Bioorg Med Chem Lett, 2004).

Where only a bound is given, the exact number is not on record here.

The test system of one assay is Candida albicans. Nature of the assay: In vitro inhibition of Candida albicans G418-sensitive proliferation. It is filed as functional, organism-based.
The target of assay [1] is T1, Dolichyl-phosphate-mannose--protein mannosyltransferase 1 (Candida albicans (strain SC5314 / ATCC MYA-2876) (Yeast), UniProt O74189).
T1 sequence (O74189 whole entry): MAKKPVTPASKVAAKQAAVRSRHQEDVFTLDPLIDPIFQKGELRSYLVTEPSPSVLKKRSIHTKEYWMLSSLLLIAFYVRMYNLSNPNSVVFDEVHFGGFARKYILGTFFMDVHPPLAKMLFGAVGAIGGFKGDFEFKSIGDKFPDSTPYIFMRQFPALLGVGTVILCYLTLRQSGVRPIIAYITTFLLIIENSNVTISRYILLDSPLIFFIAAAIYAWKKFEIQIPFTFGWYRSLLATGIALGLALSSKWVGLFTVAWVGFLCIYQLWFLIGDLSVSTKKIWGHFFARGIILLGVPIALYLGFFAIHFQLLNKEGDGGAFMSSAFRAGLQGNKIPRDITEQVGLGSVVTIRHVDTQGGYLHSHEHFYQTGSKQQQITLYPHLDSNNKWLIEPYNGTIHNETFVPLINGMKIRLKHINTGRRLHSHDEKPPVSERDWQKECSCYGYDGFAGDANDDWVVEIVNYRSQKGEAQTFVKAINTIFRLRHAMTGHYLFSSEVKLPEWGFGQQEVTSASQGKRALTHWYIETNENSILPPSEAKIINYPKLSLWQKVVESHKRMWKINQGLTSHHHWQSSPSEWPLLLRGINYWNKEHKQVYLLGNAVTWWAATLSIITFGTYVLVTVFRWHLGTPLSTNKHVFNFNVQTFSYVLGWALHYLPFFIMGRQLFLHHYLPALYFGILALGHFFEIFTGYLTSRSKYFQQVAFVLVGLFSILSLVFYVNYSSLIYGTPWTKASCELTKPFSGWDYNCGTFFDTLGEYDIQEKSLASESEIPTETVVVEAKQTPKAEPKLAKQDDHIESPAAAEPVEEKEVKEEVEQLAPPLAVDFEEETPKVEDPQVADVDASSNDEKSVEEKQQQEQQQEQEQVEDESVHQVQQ
Nature of the assay: In vitro inhibition of Candida albicans protein mannosyl transferase 1.

For orientation: IC50 means the point on the concentration scale where inhibition reaches its midpoint. Turning to `O=C(O)CN1C(=O)/C(=C/c2ccc(OCc3ccccc3)c(OCc3ccccc3)c2)SC1=S`, the IC50 in the assay on Candida albicans amounted to 3 µM; in assay [1], 2.3 µM. Taken in the same sequence, the figures for `O=C(O)CN1C(=O)/C(=C/c2ccc(OCc3ccccc3)c(OCc3cccc(Cl)c3)c2)SC1=S` were 4 µM and 4 µM.

On to `O=C(O)CN1C(=O)/C(=C/c2ccc(OCCCc3ccccc3)c(OCc3ccccc3)c2)SC1=S`, for which the IC50 was 2.4 µM in the assay on Candida albicans and 1.4 µM in assay [1]. As for `O=C(O)CN1C(=O)/C(=C/c2ccc(OCc3ccc(F)cc3F)c(OCc3ccc(F)cc3F)c2)SC1=S`, the IC50 with Candida albicans is over 100 µM; in assay [1], 5 µM. On the same counts, the results for `CS(=O)(=O)c1ccc(COc2cc(/C=C3\SC(=S)N(CC(=O)O)C3=O)ccc2OCc2ccccc2)cc1` are over 100 µM and 20 µM. In the case of `C[C@H](COc1ccc(/C=C2\SC(=S)N(CC(=O)O)C2=O)cc1O[C@@H](c1ccccc1)C(F)(F)F)c1ccccc1`, the IC50 with Candida albicans was 0.55 µM; in assay [1] it was 3.5 µM. Taken in the same sequence, the figures for `CCCN(CCC)C(=O)C(Oc1cc(/C=C2\SC(=S)N(CC(=O)O)C2=O)ccc1OCCc1ccccc1)c1ccccc1` (centres undefined) were 0.05 µM and 0.8 µM.

In the case of `CC(Oc1cc(/C=C2\SC(=S)N(CC(=O)O)C2=O)ccc1OCCc1ccccc1)c1ccccc1` (centres undefined), the results for the IC50 (in the assay on Candida albicans; in assay [1]) were 0.02 µM and 0.2 µM, respectively. Taken in the same sequence, the figures for `O=C(O)CN1C(=O)/C(=C/c2ccc(OCc3ccccc3)c(OCc3ccc(C(F)(F)F)cc3)c2)SC1=S` were over 100 µM and 11 µM. `C[C@@H](COc1ccc(/C=C2\SC(=S)N(CC(=O)O)C2=O)cc1O[C@H](c1ccccc1)C(F)(F)F)c1ccccc1`: the values for the IC50 (in the assay with Candida albicans; in assay [1]) were 0.01 µM and 0.4 µM, respectively.

Take `O=C(O)CN1C(=O)/C(=C/c2ccc(OCc3ccc(F)cc3F)c(OCc3ccccc3)c2)SC1=S`: the values for the IC50 (with Candida albicans; in assay [1]) were 2.1 µM and 6.5 µM, respectively. In the case of `O=C(O)CN1C(=O)/C(=C\c2ccc(OCc3ccccc3)c(OCc3ccc(OC(F)(F)F)cc3)c2)SC1=S`, the IC50 in the assay with Candida albicans amounted to 0.5 µM; in assay [1], 2 µM.

Take `CC[C@H](COc1ccc(/C=C2\SC(=S)N(CC(=O)O)C2=O)cc1O[C@H](c1ccccc1)C(F)(F)F)c1ccccc1`: the IC50 is 0.02 µM in the assay on Candida albicans and 0.5 µM in assay [1]. With `Cc1ccc(COc2ccc(/C=C3\SC(=S)N(CC(=O)O)C3=O)cc2OCc2ccccc2)cc1`, the values for the IC50 (with Candida albicans; in assay [1]) were 0.6 µM and 2.7 µM, respectively. On to `COc1ccc(COc2ccc(/C=C3\SC(=S)N(CC(=O)O)C3=O)cc2OCc2ccccc2)cc1`, for which the IC50 was 3 µM in the assay with Candida albicans and 3.4 µM in assay [1].

As to `O=C(O)CN1C(=O)/C(=C/c2ccc(OCCc3ccc(Cl)cc3)c(OCc3ccccc3)c2)SC1=S`, the IC50 in the assay with Candida albicans stood at 0.05 µM; in assay [1] it was 1.6 µM. For the compound `O=C(O)CN1C(=O)/C(=C/c2ccc(OCc3ccc(C(F)(F)F)cc3)c(OCc3ccccc3)c2)SC1=S`, the values for the IC50 (in the assay with Candida albicans; in assay [1]) were 4 µM and 1.9 µM, respectively. Turning to `O=C(O)CN1C(=O)/C(=C/c2ccc(OCc3ccccc3)c(OCc3cccnc3)c2)SC1=S`, the IC50 is over 100 µM with Candida albicans and 43 µM in assay [1]. As for `O=C(O)CN1C(=O)/C(=C/c2cccc(OCc3ccccc3)c2)SC1=S`, 50 µM corresponded to half-maximal inhibition in assay [1] (IC50). Turning to `O=C(O)CN1C(=O)/C(=C/c2ccc(OCCc3cc(F)cc(F)c3)c(OCc3ccccc3)c2)SC1=S`, the values for the IC50 (in the assay with Candida albicans; in assay [1]) were 0.11 µM and 0.85 µM, respectively. Taken in the same sequence, the figures for `O=C(O)CN1C(=O)/C(=C/c2ccc(OCc3ccc(F)cc3)c(OCc3ccc(F)cc3)c2)SC1=S` were 5.2 µM and 5 µM.

With `O=C(O)CN1C(=O)/C(=C/c2ccc(OCc3ccccc3)c(OCc3ccc(F)cc3F)c2)SC1=S`, the concentration for half-maximal inhibition (IC50) turned out to be 6 µM in the assay with Candida albicans and 8.5 µM in assay [1]. In the case of `C[C@H](Oc1cc(/C=C2\SC(=S)N(CC(=O)O)C2=O)ccc1OC[C@H](C)c1ccccc1)c1ccccc1`, the figures for the IC50 (in the assay on Candida albicans; in assay [1]) were 0.002 µM and 0.5 µM, respectively.

Consider `O=C(O)CN1C(=O)/C(=C/c2ccc(OCCc3ccc(OC(F)(F)F)cc3)c(OCc3ccccc3)c2)SC1=S`, for which the half-inhibitory concentration (IC50) with Candida albicans was 0.2 µM; in assay [1], 1.3 µM. As for `O=C(O)CN1C(=O)/C(=C/c2ccc(OCc3ccccc3)c(OCc3cccc(C(F)(F)F)c3)c2)SC1=S`, the concentration for half-maximal inhibition (IC50) is over 100 µM with Candida albicans and 11 µM in assay [1].

On to `O=C(O)CN1C(=O)/C(=C/c2ccc(OCc3ccccc3)cc2)SC1=S`, for which the values for the IC50 (with Candida albicans; in assay [1]) were 50 µM and 55 µM, respectively.

`O=C(O)CN1C(=O)/C(=C/c2ccc(OCCc3ccc(F)cc3F)c(OCc3ccccc3)c2)SC1=S`: the IC50 was found to be 0.05 µM with Candida albicans and 4 µM in assay [1]. Taken in the same sequence, the figures for `COc1cccc(COc2ccc(/C=C3\SC(=S)N(CC(=O)O)C3=O)cc2OCc2cccc(OC)c2)c1` were over 100 µM and 15 µM. Taken in the same sequence, the figures for `O=C(O)CN1C(=O)/C(=C/c2ccc(OCCc3ccccc3)c(OC(C(=O)N3CCOCC3)c3ccccc3)c2)SC1=S` (centres undefined) were 43 µM and 1 µM.

With `C[C@@H](COc1ccc(/C=C2\SC(=S)N(CC(=O)O)C2=O)cc1O[C@@H](c1ccccc1)C(F)(F)F)c1ccccc1`, the IC50 amounted to 0.2 µM with Candida albicans and 1.8 µM in assay [1]. In the case of `O=C(O)CN1C(=O)/C(=C/c2ccc(OCc3ccc(F)c(F)c3)c(OCc3ccccc3)c2)SC1=S`, the values for the 50% inhibitory concentration (IC50) (in the assay with Candida albicans; in assay [1]) were 1.5 µM and 2 µM, respectively. On the same counts, the results for `CS(=O)(=O)c1ccc(COc2ccc(/C=C3\SC(=S)N(CC(=O)O)C3=O)cc2OCc2ccccc2)cc1` are over 100 µM and 3.2 µM. Turning to `O=C(O)CN1C(=O)/C(=C/c2ccc(OCCc3ccccc3)c(OC(CO)c3ccccc3)c2)SC1=S` (centres undefined), the IC50 in the assay with Candida albicans was found to be 0.3 µM; in assay [1] it was 0.17 µM. Taken in the same sequence, the figures for `COc1cccc(COc2cc(/C=C3\SC(=S)N(CC(=O)O)C3=O)ccc2OCc2ccccc2)c1` were over 100 µM and 7.5 µM. For the compound `CC[C@@H](COc1ccc(/C=C2\SC(=S)N(CC(=O)O)C2=O)cc1O[C@H](c1ccccc1)C(F)(F)F)c1ccccc1`, the half-inhibitory concentration (IC50) with Candida albicans came to 0.02 µM; in assay [1], 0.35 µM. On the same counts, the results for `C[C@@H](COc1ccc(/C=C2\SC(=S)N(CC(=O)O)C2=O)cc1OCc1ccccc1)c1ccccc1` are 0.07 µM and 1.8 µM.

On to `O=C(O)CN1C(=O)/C(=C/c2ccc(OCc3ccccc3)c(OCc3ccncc3)c2)SC1=S`, for which the concentration for half-maximal inhibition (IC50) in the assay on Candida albicans was over 100 µM; in assay [1], 30 µM. The compound `O=C(O)CN1C(=O)/C(=C/c2ccc(OCc3ccccc3)c(OCc3ccc(Cl)cc3)c2)SC1=S` returned an IC50 in assay [1] of 7 µM. As for `O=C(O)CN1C(=O)/C(=C/c2ccc(OCc3ccc(Cl)cc3)c(OCc3ccccc3)c2)SC1=S`, the IC50 came out at 0.6 µM in the assay on Candida albicans and 0.95 µM in assay [1].

Consider `O=C(O)CN1C(=O)/C(=C/c2ccc(OCCc3ccc(C(F)(F)F)cc3)c(OCc3ccccc3)c2)SC1=S`, for which the IC50 in the assay on Candida albicans worked out at 0.18 µM; in assay [1], 4 µM. As to `NC(=O)C(Oc1cc(/C=C2\SC(=S)N(CC(=O)O)C2=O)ccc1OCCc1ccccc1)c1ccccc1` (centres undefined), the IC50 with Candida albicans turned out to be 7 µM; in assay [1], 0.35 µM. As to `CCC(Oc1cc(/C=C2\SC(=S)N(CC(=O)O)C2=O)ccc1OCCc1ccccc1)c1ccccc1` (centres undefined), the IC50 came to 0.02 µM in the assay with Candida albicans and 0.95 µM in assay [1]. Regarding `C[C@H](COc1ccc(/C=C2\SC(=S)N(CC(=O)O)C2=O)cc1O[C@H](c1ccccc1)C(F)(F)F)c1ccccc1`, the IC50 was found to be 0.02 µM in the assay with Candida albicans and 0.6 µM in assay [1]. With `C[C@H](COc1ccc(/C=C2\SC(=S)N(CC(=O)O)C2=O)cc1OCc1ccccc1)c1ccccc1`, the IC50 in the assay with Candida albicans was found to be 0.35 µM; in assay [1], 9.5 µM. On the same counts, the results for `O=C(O)CN1C(=O)/C(=C/c2ccc(OCCc3ccc(F)cc3)c(OCc3ccccc3)c2)SC1=S` are 0.05 µM and 1.2 µM. As to `O=C(O)CN1C(=O)/C(=C/c2ccc(OCCc3ccccc3)c(OCc3ccccc3)c2)SC1=S`, the values for the concentration for half-maximal inhibition (IC50) (in the assay on Candida albicans; in assay [1]) were 0.5 µM and 1.5 µM, respectively. On the same counts, the results for `CC(C)C(Oc1cc(/C=C2\SC(=S)N(CC(=O)O)C2=O)ccc1OCCc1ccccc1)c1ccccc1` (centres undefined) are 0.03 µM and 0.7 µM. Consider `C[C@@H](COc1ccc(/C=C2\SC(=S)N(CC(=O)O)C2=O)cc1O[C@H](C)c1ccccc1)c1ccccc1`, for which the IC50 turned out to be 0.03 µM in the assay with Candida albicans and 1.8 µM in assay [1]. Taken in the same sequence, the figures for `O=C(O)CN1C(=O)/C(=C/c2ccc(OCc3c(F)cccc3F)c(OCc3c(F)cccc3F)c2)SC1=S` were over 100 µM and 20 µM. Compound `O=C(O)CN1C(=O)/C(=C/c2ccc(OCc3cccc(C(F)(F)F)c3)c(OCc3ccccc3)c2)SC1=S` had an IC50 in the assay on Candida albicans of 0.65 µM. Consider `O=C(O)CN1C(=O)/C(=C/c2ccc(OCc3ccccc3)c(OCc3ccc(F)c(F)c3)c2)SC1=S`, for which the IC50 in the assay with Candida albicans is over 100 µM; in assay [1], 4.2 µM.
